These results are taken from US20090306218A1, “Antimicrobial formulations” (priority 2006, published 2009).

Like-named read-outs stand apart in the source and are kept apart here.

In experiment [1] the test system is Propionibacterium acnes NCTC 737. The experiment can be described thus: Disc diffusion assay (DDA). The class given is cell-based. Particulars: for DDA (zone of inhibition diameter): P. acnes NCTC 737; for zone of inhibition at 200 µg/disc: Cutibacterium acnes, NCTC737, read-out: DDA (zone of inhibition diameter). As to the method: (d) Disc Diffusion Assay (DDA)
This is an internationally recognised standard method for qualitatively assessing the antimicrobial activity of a compound.
A sterile paper disc was impregnated with a sample of the test compound in a suitable solvent and 30 minutes allowed for the solvents to evaporate (where possible). The disc was then placed on an agar plate onto which the test micro-organism had been inoculated. The plate was then incubated under the conditions described above, following which it was examined visually for signs of microbial growth. […] The diameter of this zone of “inhibition” was measured using a ProtoCOL™ automated zone sizer (Synbiosis, Cambridge, UK).
(§1) The TBHQ was dissolved in ethanol and the bismuth salts in DMSO.
(§2) All the (S)DDA experiments were conducted in triplicate.
(§3) DDA assays, as described above, were carried out using each of the test compounds individually. The quinone/bismuth salt combinations were then subjected to the SDDA assay described above.
(§4) The quinones and bismuth salts were all dissolved in DMSO.
On the technique in general: In agar diffusion tests the substance spreads into inoculated agar from a disc or well.

The test system is the same in experiment [2]. The experiment is described as follows: Minimum inhibitory concentration (MIC) assay, liquid medium. The class given is cell-based. The conditions noted are these: P. acnes NCTC 737. As to the method:
(a) Minimum Inhibitory Concentration (MIC) Assay
This is a standard international method for quantitatively assessing the antimicrobial activity of a compound in a liquid medium. The method used a sterile 96-well microtitre plate, capable of holding about 200 μl of liquid per well. […] The culture medium was as described above.
After incubation, the microtitre plate was examined visually (with the aid of a light box) for cloudiness in each well, which would indicate microbial growth. The MIC value was recorded as the lowest concentration of test compound required to inhibit microbial growth, i.e., the lowest concentration for which the liquid in the well remained clear.
The assays were conducted in duplicate (minimum) and included both negative (culture medium with no micro-organisms) and positive (culture medium plus diluting solvent plus micro-organism) controls.
(§5) MIC, MBC and DDA assays, as described above, were carried out using the test compound t-butyl-p-hydroquinone (TBHQ) and a range of bismuth salts (all ex-Sigma Aldrich, UK).

Experiment [3] has the same test system. The experiment can be described thus: Minimum bactericidal concentration (MBC) assay. In kind it is cell-based. The conditions noted are these: P. acnes NCTC 737. As to the method:
(b) Minimum Bactericidal Concentration (MBC) Assay
as §5

The test system is the same in experiment [4]. The experiment can be described thus: Synergy disc diffusion assay (SDDA). In kind it is cell-based. The conditions noted are these: P. acnes NCTC 737; for SDDA with TBHQ (zone diameter): bismuth salt together with TBHQ, 200 μg of each per disc; for SDDA increase: combination with TBHQ vs the single compound with the larger zone; for SDDA area increase: combination with TBHQ. As for the experimental part:
(e) Synergy Disc Diffusion Assay (SDDA)
Each bismuth salt was then subjected, together with the TBHQ, to the SDDA assay described above.
as §1, §2, §3, §4

The test system of experiment [5] is P. acnes PRP panel strains. In kind it is cell-based, Propionibacterium acnes.
The test system of experiment [6] is P. granulosum panel strains. The experiment is described as follows: Agar dilution MIC assay, panel of propionibacteria. In kind it is cell-based, Propionibacterium granulosum. In general terms: Agar dilution tests growth on a series of plates holding different concentrations.
The mark [7] stands for this setting: 200 μg per disc (2-t-butyl-p-benzoquinone 100 μg per disc), in DMSO, Table 5.
Setting [8] is: P. acnes PRP-002, resistance phenotype Tet/MLS.
Where [9] appears, read: P. acnes PRP-003, resistance phenotype Tet.
Setting [10] is: P. acnes PRP-004, resistance phenotype Tet.
Setting [11] is: P. acnes PRP-007, resistance phenotype Clin.
Setting [12] is: P. acnes PRP-008, resistance phenotype Clin.
The mark [13] stands for this setting: P. acnes PRP-010, resistance phenotype MLSK.
The mark [14] stands for this setting: P. acnes PRP-017, resistance phenotype MLS.
Where [15] appears, read: P. acnes PRP-023, resistance phenotype MLSK.
Where [16] appears, read: P. acnes PRP-026, resistance phenotype MLS.
The mark [17] stands for this setting: P. acnes PRP-039, resistance phenotype Tet/MLS.
[18] abbreviates: P. acnes PRP-046, resistance phenotype None.
The mark [19] stands for this setting: P. acnes PRP-053, resistance phenotype Tet/MLS.
The mark [20] stands for this setting: P. acnes PRP-059, resistance phenotype MLS.
[21] abbreviates: P. acnes PRP-068, resistance phenotype Ery.
Where [22] appears, read: P. acnes PRP-101, resistance phenotype Tet/MLS.
The mark [23] stands for this setting: P. acnes PRP-102, resistance phenotype Tet/MLS.
Where [24] appears, read: P. granulosum NCTC 11865, resistance phenotype None.
[25] abbreviates: P. granulosum PRP-005, resistance phenotype MLSK.
Setting [26] is: P. granulosum PRP-006, resistance phenotype MLS.
The mark [27] stands for this setting: P. granulosum PRP-019, resistance phenotype MLSK.
The mark [28] stands for this setting: P. granulosum PRP-021, resistance phenotype MLS.
Setting [29] is: P. granulosum PRP-043, resistance phenotype MLS.
Where [30] appears, read: P. granulosum PRP-044, resistance phenotype MLS.
The mark [31] stands for this setting: P. granulosum PRP-055, resistance phenotype None.

In general, MIC refers to the lowest concentration found to suppress growth. A higher MIC goes with a need for much substance. What is called MBC is the lowest tested concentration that kills the bacteria rather than only halting them. A lower MBC goes with greater bactericidal potency. What is called zone of inhibition is the extent of the growth-free halo in a diffusion test.

For `CC(C)(C)C1=CC(=O)C=CC1=O` [2-t-butyl-p-benzoquinone], in experiment [1] (setting [7]), the “DDA (zone of inhibition diameter)” value came out at 52.61 mm.
With `[Cl][Bi]([Cl])[Cl]` [Bismuth chloride], the MIC in experiment [2] (Table 1) is 0.49 µg/mL. Moreover, in experiment [3] (Table 1), the MBC was determined as 3.9 µg/mL and the MIC/MBC ratio is 0.125. Moreover, the “DDA (zone of inhibition diameter)” value in experiment [1] (200 μg per disc, Table 2) came out at 26.07 mm. In experiment [4] (Table 2), the “SDDA with TBHQ (zone diameter)” value is recorded as 31.64 mm, the SDDA increase is 5.57 mm and the SDDA area increase came to 47.29%.
In the case of `O=[N+]([O-])[O-].O=[N+]([O-])[O-].O=[N+]([O-])[O-].O=[N+]([O-])[O-].[Bi+3].[Bi+3].[Bi+3].[Bi+3].[Bi+3].[O-2].[OH-].[OH-].[OH-].[OH-].[OH-].[OH-].[OH-].[OH-].[OH-]` [Bismuth subnitrate], the MIC in experiment [2] (separate experiment, Table 3) was found to be 3.9 µg/mL. The same molecule displayed an MBC in experiment [3] (separate experiment, Table 3) of 7.8 µg/mL. In addition, the MIC/MBC ratio in experiment [3] (separate experiment, Table 3) amounted to 0.5. The “DDA (zone of inhibition diameter)” value is 24.91 mm in experiment [1] (setting [7]) and 24.91 mm in experiment [1] (200 μg per disc, separate experiment, Table 4). The “SDDA with TBHQ (zone diameter)” value in experiment [4] (Table 4) turned out to be 30.39 mm. Besides, the SDDA increase in experiment [4] (Table 4) is on record as 5.48 mm. Besides, in experiment [4] (Table 4), the SDDA area increase is on record as 48.84%. The “MIC (agar dilution)” value in experiment [5] (setting [8]), in experiment [5] (setting [9]), in experiment [5] (setting [10]), in experiment [5] (setting [11]), in experiment [5] (setting [12]) and in experiment [5] (setting [13]) was 7.8 µg/mL throughout. Further, the “MIC (agar dilution)” value in experiment [5] (setting [14]), in experiment [5] (setting [15]), in experiment [5] (setting [16]), in experiment [5] (setting [17]), in experiment [5] (setting [18]) and in experiment [5] (setting [19]) was 7.8 µg/mL throughout. In addition, the “MIC (agar dilution)” value in experiment [5] (setting [20]), in experiment [5] (setting [21]), in experiment [5] (setting [22]), in experiment [5] (setting [23]), in experiment [6] (setting [24]) and in experiment [6] (setting [25]) was 7.8 µg/mL each time. The “MIC (agar dilution)” value in experiment [6] (setting [26]), in experiment [6] (setting [27]), in experiment [6] (setting [28]), in experiment [6] (setting [29]), in experiment [6] (setting [30]) and in experiment [6] (setting [31]) was 7.8 µg/mL each time.
`CC(=O)[O-].CC(=O)[O-].CC(=O)[O-].[Bi+3]` [Bismuth acetate] returned an MIC in experiment [2] (Table 1) of 0.98 µg/mL. In experiment [3] (Table 1), the MBC turned out to be 7.8 µg/mL and the MIC/MBC ratio is given as 0.125. In addition, the “DDA (zone of inhibition diameter)” value in experiment [1] (200 μg per disc, Table 2) is on record as 28.17 mm. In experiment [4] (Table 2), the “SDDA with TBHQ (zone diameter)” value came to 34.89 mm, the SDDA increase is listed as 6.72 mm and the SDDA area increase is given as 53.4%.
In the case of `O=C1C=CC(=O)C(Cl)=C1` [2-chloro-p-benzoquinone], the zone of inhibition at 200 µg/disc in experiment [1] worked out at 25.4 mm.
Take `CC1=CC(=O)C=CC1=O` [Methyl-p-benzoquinone]: the zone of inhibition at 200 µg/disc in experiment [1] was 39.9 mm.
`O=C([O-])CC(O)(CC(=O)[O-])C(=O)[O-].[Bi+3]` [Bismuth citrate] had a minimal inhibitory concentration (MIC) in experiment [2] (Table 1) of 0.98 µg/mL. Moreover, the MBC in experiment [3] (Table 1) was 7.8 µg/mL. Besides, the MIC/MBC ratio in experiment [3] (Table 1) was 0.125. The “DDA (zone of inhibition diameter)” value in experiment [1] (setting [7]) stood at 32.97 mm; in experiment [1] (200 μg per disc, Table 2) it was 34.47 mm. The “SDDA with TBHQ (zone diameter)” value in experiment [4] (Table 2) stood at 43.41 mm. In experiment [4] (Table 2), the SDDA increase is recorded as 8.94 mm. Besides, the SDDA area increase in experiment [4] (Table 2) stood at 58.59%. Moreover, the “MIC (agar dilution)” value in experiment [5] (setting [8]) was 7.8 µg/mL; in experiment [5] (setting [9]), 3.9 µg/mL; in experiment [5] (setting [10]), 7.8 µg/mL; in experiment [5] (setting [11]) it was 3.9 µg/mL; in experiment [5] (setting [12]), 3.9 µg/mL; in experiment [5] (setting [13]) it was 7.8 µg/mL. Besides, the “MIC (agar dilution)” value in experiment [5] (setting [14]) turned out to be 3.9 µg/mL; in experiment [5] (setting [15]) it was 3.9 µg/mL; in experiment [5] (setting [16]), 3.9 µg/mL; in experiment [5] (setting [17]), 0.98 µg/mL; in experiment [5] (setting [18]), 3.9 µg/mL; in experiment [5] (setting [19]) it was 3.9 µg/mL. In addition, the “MIC (agar dilution)” value in experiment [5] (setting [20]), in experiment [5] (setting [21]), in experiment [5] (setting [22]), in experiment [5] (setting [23]), in experiment [6] (setting [24]) and in experiment [6] (setting [25]) was 7.8 µg/mL throughout. Also, the “MIC (agar dilution)” value is 7.8 µg/mL in experiment [6] (setting [26]); 7.8 µg/mL in experiment [6] (setting [27]); 7.8 µg/mL in experiment [6] (setting [28]); 3.9 µg/mL in experiment [6] (setting [29]); 7.8 µg/mL in experiment [6] (setting [30]); 7.8 µg/mL in experiment [6] (setting [31]).
